Results from patent US20230167127A1, “COMPOUNDS AND THEIR USE IN THE TREATMENT OF BACTERIAL INFECTION” (Hoffmann-La Roche Inc., priority 2020, published 2023).

These compounds were tested on Escherichia coli ATCC 25922 (assay: 50% growth inhibitory concentration (IC50) determination, Iso-Sensitest broth dilution). Settings: Escherichia coli, ATCC25922, 16 h, strain Escherichia coli ATCC 25922; 10-point broth dilution, optical density at 600 nm over 16 h; read-out: Escherichia coli growth inhibition IC50.
Assay type: cell-based
Method in brief: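 Growth was tracked as optical density at 600 nm every 20 minutes for 16 h at 35±2° C. Compounds from DMSO stocks were serially diluted twofold over 10 points (e.g. 50–0.097 μM final) in Iso-Sensitest broth. Inhibition computed in log-phase growth to give IC50.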

| IC50 [nM] | SMILES |
| --- | --- |
| 751 | O=C1COc2ccc(N3CC(CCNCC4Cc5ccncc5C4)OC3=O)nc2N1 (stereo not shown) [Example 418, 6-[5-[2-(6,7-Dihydro-5H-cyclopenta[c]pyridin-6-ylmethylamino)ethyl]-2-oxo-1,3-oxazolidin-3-yl]-4H-pyrido[3,2-b][1,4]oxazin-3-one] |
| 378 | Cc1c(OCC2CCN2)ncc2c1CC(CNCCC1CN(c3ccc4c(n3)NC(=O)CO4)C(=O)O1)C2 (stereo in doubt) [Example 219, 6-[5-[2-[[4-methyl-3-[[(2R)-azetidin-2-yl]methoxy]-6,7-dihydro-5H-cyclopenta[c]pyridin-6-yl]methylamino]ethyl]-2-oxo-1,3-oxazolidin-3-yl]-4H-pyrido[3,2-b][1,4]oxazin-3-one] |
| 265 | Cc1ncc(F)c2c1CC(NC(C)CCC1CN(c3cnc4c(n3)NC(=O)CO4)C(=O)O1)C2 (single isomer, unassigned; isomer a) [Example 333, 6-[5-[3-[(4-fluoro-1-methy1-6,7-dihydro-5H-cyclopenta[c]pyridin-6-yl)amino]butyl]-2-oxo-1,3-oxazolidin-3-yl]-4H-pyrazino[2,3-b][1,4]oxazin-3-one, Isomer A] |
| < 97.7 | Cc1ncc(C#N)c2c1CC(CNCCC1CN(c3ccc4c(n3)NC(=O)CO4)C(=O)O1)C2 (stereo not shown) [Example 47, 1-methyl-6-[[2-[2-oxo-3-(3-oxo-4H-pyrido[3,2-b][1,4]oxazin-6-yl)-1,3-oxazolidin-5-yl]ethylamino]methyl]-6,7-dihydro-5H-cyclopenta[c]pyridine-4-carbonitrile; formic acid] |
| < 97.7 | Cc1nc(Cl)c2c(c1F)CC(CNCCC1CN(c3ccc4c(n3)NC(=O)CO4)C(=O)O1)C2 (stereo not shown) [Example 256, 6-[5-[2-[(1-Chloro-4-fluoro-3-methyl-6,7-dihydro-5H-cyclopenta[c]pyridin-6-yl)methylamino]ethyl]-2-oxo-1,3-oxazolidin-3-yl]-4H-pyrido[3,2-b][1,4]oxazin-3-one] |
| 358 | Cc1ncc(F)c2c1CC(CNCCC1(C)CN(c3cnc4c(n3)NC(=O)CO4)C(=O)O1)C2 (stereo not shown) [Example 340, 6-[5-[2-[(4-fluoro-1-methyl-6,7-dihydro-5H-cyclopenta[e]pyridin-6-yl)methylamino]ethyl]-5-methyl-2-oxo-1,3-oxazolidin-3-yl]-4H-pyrazino[2,3-b][1,4]oxazin-3-one] |
| 668 | Cc1ncc(F)c2c1CC(NCC(O)CC1CN(c3cnc4c(n3)NC(=O)CO4)C(=O)O1)C2 (single isomer, unassigned; isomer c) [Example 315, 6-[2-Oxo-5-[3-[(4-fluoro-1-methyl-6,7-dihydro-5H-cyclopenta[c]pyridin-6-yl)amino]-2-hydroxypropyl]-1,3-oxazolidin-3-yl]-4H-pyrazino[2,3-b][1,4]oxazin-3-one; formic acid, Isomer C] |
| 140 | N[C@H](CO)COc1ncc2c(c1Cl)CC(CNCCC1CN(c3ccc4c(n3)NC(=O)CO4)C(=O)O1)C2 (stereo partly drawn) [Example 237, 6-[5-[2-[[4-Chloro-3-[(2R)-2-amino-3-hydroxypropoxy]-6,7-dihydro-5H-cyclopenta[c]pyridin-6-yl]methylamino]ethyl]-2-oxo-1,3-oxazolidin-3-yl]-4H-pyrido[3,2-b][1,4]oxazin-3-one] |
| 161 | O=C1COc2ncc(N3CC4(CCN(CC5Cc6c(F)cc(OCc7cc[nH]n7)c(F)c6C5)CC4)OC3=O)nc2N1 (stereo not shown) [Example 396, 6-[8-[[4,7-difluoro-5-(1H-pyrazol-3-ylmethoxy)-2,3-dihydro-1H-inden-2-yl]methyl]-2-oxo-1-oxa-3,8-diazaspiro[4.5]decan-3-yl]-4H-pyrazino[2,3-b][1,4]oxazin-3-one] |

Same assay, conditions: strain Escherichia coli ATCC 25922; 10-point broth dilution, optical density at 600 nm over 16 h; read-out: Escherichia coli growth inhibition IC50

| IC50 [nM] | SMILES |
| --- | --- |
| < 97.7 | O=C1COc2ccc(N3CC(CCNCC4Cc5cccc(Cl)c5C4)OC3=O)nc2N1 (single isomer, unassigned; isomer b) [Example 7, 6-[5-[2-[(4-chloro-2,3-dihydro-1H-inden-2-yl)methylamino]ethyl]-2-oxo-1,3-oxazolidin-3-yl]-4H-pyrido[3,2-b][1,4]oxazin-3-one, Isomer B; formic acid] |
